Results reported in US20100112012A1, “MODULATION OF IMMUNE RESPONSES” (CLEVELAND CLINIC FOUNDATION, priority 2005, published 2010).
Entries after “also recorded” stand apart in the source; their conditions may differ. Where two headings read alike, the source gives them in different places.

Columns and labels:
[1] = system: hapten-specific CD8 T cells producing IFN-γ; assay: ELISPOT assay of hapten-specific CD8 T cells producing IFN-γ; assay type: in vivo, BALB/c mice; conditions: day +5
Procedure: ELISPOT assays to enumerate hapten-specific T cells producing IFN-γ were performed as previously described. Briefly, ELISPOT plates (Millipore, Bedford, Mass.) were coated with 100 ml of […] anti-IFN-γ mAb R26A2 and incubated overnight at […]. The plates were blocked with 1% BSA in PBS for 90 min at 37° C. and washed four times with PBS. LNC suspensions from DNFB-sensitized mice were prepared on day +5 after sensitization and CD8 + T cells were enriched by negative selection using Dynabeads (Dynal A. S., Oslo, Norway). The efficiency of CD4+ T cell depletion was >95% as assessed by flow cytometry. Syngeneic spleen cells from naive mice were treated with […] mitomycin C, hapten-labeled by incubation with DNBS ([…]), and used as stimulator cells. Responder LNC were resuspended in serum-free HL-1 medium (BioWhittaker, Walkersville, Md.) and cultured at 3×10^5 cells/well with 5×10^5 stimulator cells/well 24 h at 37° C. in 5% CO2. In all experiments responder CD8+ T cells cultured with unlabeled splenocytes and LNC from naive mice cultured with DNBS-labeled stimulator cells were used as negative controls. […] The resulting spots were counted on an ImmunoSpot Series 1 Analyzer (Cellular Technologies Ltd., Cleveland, Ohio) that was designed to detect spots with predetermined criteria for size, shape and colorimetric density. […]

NF-κB = assay: NF-κB-dependent reporter in H1299-NF-kBLuc cells; assay type: cell-based, human; conditions: TNF 10 ng/ml
Procedure: Transient transfections. 2×10^5 cells were plated into 6-well plates and, after overnight incubation, transfected with Lipofectamin Plus reagent (Gibco BRL) with 0.5 μg of reporter plasmids (p21-ConALuc or pNF-κBLuc) in combination with different concentrations of plasmids expressing p53, Arf, Ss-IκB, or siHDM2. Corresponding empty vectors were added in all transfections up to 2 μg of total DNA. Normalization of transfection efficiency was done by adding 0.2 μg of pCMV-LacZ plasmid. Luciferase activity and β-galactosidase activity were measured in lysates prepared 48 hours after transfection with Cell Lysis Buffer (Promega) by the luciferase assay system (Promega) or β-galactosidase enzyme system (Promega). Luminometric and colorimetric reactions were read on the Wallack 1420 plate reader (Perkin Elmer). Stable transduction of reporters. 2×10^4 cells with integrated reporter were plated in 96-well plates. After overnight incubation, chemicals or media from lentivirus-producing cells were added. At different times, cell lysates were prepared using Reporter Lysis Buffer (Promega). Luciferase or β-galactosidase activity and protein concentration were measured in aliquots of cell lysates using standard kits (Promega, Luciferase and β-galactosidase assay systems, Biorad Protein Assay Kit).

[2] = system: contact hypersensitivity (CHS) response; assay: Hapten sensitization and elicitation of contact hypersensitivity; assay type: in vivo, BALB/c mice; conditions: 24 hours after challenge
Procedure: For sensitization to DNFB, mice were painted on days 0 and +1 with 25 ml of 0.25% 2,4-dinitrofluorobenzene (DNFB) (Sigma Chemical, Co.) on the shaved abdomen and 5 ml on each footpad. On day +5 sensitized and, as a negative control, unsensitized mice were challenged with 10 ml of 0.2% DNFB on both sides of each ear. Ear thickness was measured in a blinded manner at 24 h intervals after challenge using an engineer's micrometer (Mitutoyo, Elk Grove Village, Ill.) and expressed in units of 10^−4 inches. The magnitude of ear swelling responses is presented in FIG. 12 as the mean increase of each group of 4 sensitized or non-sensitized mice (i.e. […]) ±SEM over the thickness measured just prior to hapten challenge on day +5 post-sensitization. […] Control mice received injections with an equal volume of PBS.

[3] = system: antigen-presenting dendritic cells; assay: Flow cytometry of CD11c+/FITC+ dendritic cells in skin draining lymph nodes; assay type: in vivo, BALB/c mice; conditions: day +2
Procedure: LNC were obtained from hapten-sensitized mice on day +2 post-sensitization. To prevent non-specific antibody binding cells were incubated with rat serum (Rockland, Gilbertsville, Pa.) diluted 1:1000 in staining buffer (Dulbecco's PBS with 2% FCS/0.02% NaN3) for 20 min on ice. Then cells were washed and stained with PE-labeled anti-CD11c mAb to detect DC. Stained cells were washed five times, resuspended in staining buffer and analyzed by two-color flow cytometry using a FACScan (Becton Dickinson, San Jose, Calif.).
To detect Langerhans cells in the lymph nodes LNC were obtained 48 h after sensitization with 1% FITC and were stained with PE-labeled anti-CD11c mAb and then analyzed by two-color flow cytometry.

[4] = system: MHC-mismatched heart grafts; conditions: quinacrine on days −2, −1, +5, +14, +16; for survival of heart allografts: A/J donors to C57BL/6
Procedure: Heterotopic cardiac transplants were performed using microsurgical techniques. Briefly, donor hearts were harvested and placed in chilled Ringer's solution while the recipient mice were prepared. […] Upon completion of the anastomoses and organ reperfusion, the heart grafts resumed spontaneous contraction. The strength and quality of cardiac graft impulses were monitored each day by palpation of the abdomen. Rejection of cardiac grafts was considered complete by cessation of impulse and was confirmed visually for each graft by laparotomy.

p53 = p53 reporter in organ cultures of human RCC tumor samples; assay type: cell-based; conditions: 12 hours
Procedure: FIG. 11. QC can activate p53 transactivation in organ cultures of human RCC tumor samples. Fresh surgically removed samples of tumor and adjacent normal kidney were cut into small pieces and put into media containing ConALacZ virus (5×10^7 TU/ml) with […] of polybrene for 4 hours. 24 hours after infection, tissue pieces (at least three per treatment) were incubated with media containing quinacrine or doxorubicin for 12 hours. Then the tissues were fixed for 30 min in PBS containing 0.5% glutaraldehyde and 1 mM MgCl2. Pieces of tumor were stained in PBS solution containing X-gal (1 mM MgCl2, 3.3 mM K4Fe(CN)6, 3.3 mM K3Fe(CN)6, 0.02% NP40, 0.2% X-gal) overnight at 37° C. Stained specimens were analyzed microscopically by squeezing pieces of tumor and normal tissues between two glass slides.

RCC cell lines = assay: Growth inhibition assay, RCC, non-RCC and normal kidney (NKE) cells; assay type: cell-based, human; conditions: 6 RCC and 6 non-RCC cell lines, growth inhibition assay
Procedure: Growth inhibition assay. […] Cell survival was estimated after an additional 48 hours, using standard Methylene Blue staining followed by extraction and colorimetrical detection of the dye.

## CCN(CC)CCCC(C)Nc1c2ccc(Cl)cc2nc2ccc(OC)cc12 (centres unmarked) [QC, quinacrine]
[1]; quinacrine on days 0 and +1 (during sensitization)
  increase in priming of antigen-specific effector T cells: ~3 fold
[1]; quinacrine on days −2 and −1 (just prior to sensitization)
  priming of antigen-specific T cells (IFN-γ producing CD8 T cells): inhibits the priming of antigen-specific T cells; also recorded: decreased the priming of antigen-specific T cells
NF-κB; H1299-NF-kB-Luc cells
  basal and TNF-induced NF-κB reporter activities: strong dose-dependent suppression; also recorded: capable of inhibiting both basal and TNF-induced activities of NF-κB
NF-κB; H1299-NF-κBLuc cells
  timing of addition relative to TNF needed to inhibit NF-κB: can inhibit NF-κB when added before, simultaneously with or after TNF stimulation
[2]; quinacrine 80 mg/kg i.p. on days −2 and −1 (just prior to DNFB sensitization)
  CHS/ear swelling response: inhibits the priming of antigen-specific T cells (FIG. 13) and the magnitude and duration of the allergic response elicited; also recorded: decreased the CHS/ear swelling response to near the level observed following challenge of non-immune, naïve mice
[2]; quinacrine on days 0 and +1 (during DNFB sensitization)
  CHS/ear swelling response: increased the magnitude and persistence of the antigen-specific T cell response; also recorded: increased the CHS response to the challenge
[3]; quinacrine on days 0 and +1 (during 1% FITC sensitization)
  numbers of antigen-presenting dendritic cells in the skin draining lymph nodes: increased numbers of antigen-presenting dendritic cells
[3]; quinacrine on days −2 and −1 (prior to 1% FITC sensitization)
  numbers of antigen-presenting dendritic cells in the skin draining lymph nodes: decreased numbers of antigen-presenting dendritic cells
[4]; listed as Quinacrine
  survival of heart allografts: extended the survival of all grafts
[4]; listed as quinacrine
  survival of heart allografts: significant prolongation of allograft survival
[4]; groups of 5
  rejection of heart allografts: absence of rejection in one of the allografts
p53; organ cultures of adjacent normal kidney
  p53-responsive reporter induction in normal kidney samples: no reporter induction
p53; organ cultures of human RCC
  expression of a p53-responsive reporter in tumor samples: can be also detected in short-term organ cultures; also recorded: induced expression of a p53-responsive reporter in tumor samples
RCC cell lines
  IC50 in RCC cells compared with non-RCC cells: in the same range as for non-RCC cells
